# Results: US8367644B2, “Methods and compounds useful to induce apoptosis in cancer cells” (The Burnham Institute, priority 2003, dated 2013)
# Like-named read-outs stand apart in the source and are kept apart here.
# What was measured:
# [1] = tested on: MCF7 cell line (high expressor of Bcl-2/Bcl-xL); assay: XTT dye reduction cell viability assay, MCF7
# Protocol: (§1) To evaluate the cytotoxic activity of our compounds on human tumors cells, we tested their biological activities using XTT dye reduction assays using two breast cancer cell lines: MCF7 (high expressor of Bcl-2/Bcl-xL) and ZR75-1 (low expressor of Bcl-2/Bcl-xL).
# The effects of the compounds studied in this paper on viability of tumor cells in culture were monitored by using XTT (Weislow et al., J. Natl. Cancer Inst., 81:577 (1989)) assays with MCF7 and ZR75-1 cell lines. MCF7 cells were grown in DMEM containing 10% fetal bovine serum, penicillin/streptomycin, supplemented with 10^−10 M insulin, 1 mM sodium pyruvate and glutamine. ZR75-1 cells were grown in RPMI containing 10% fetal bovine serum, penicillin/streptomycin, supplemented with HEPES buffer, 1 mM sodium pyruvate and glutamine. Cells were regularly tested for mycoplasma contamination. Cells were seeded triplicates at an initial cell density of 1,000 cells per well. Blank wells received no cells. […] Relative numbers of viable cells was determined by XTT assay. […] Then, the contents of each plate were mixed and optical densities were determined at a wavelength of 450 nm (OD450). Net OD450 was determined after subtracting OD450 of blank wells. […]
# [2] = tested on: ZR75-1 cell line (low expressor of Bcl-2/Bcl-xL); assay: XTT dye reduction cell viability assay, ZR75-1; settings: ZR75-1, XTT; for IC50: read-out: IC50, cell viability, three days
# Protocol: as §1
# (§2) The effects of the compounds studied in this paper on viability of tumor cells in culture were monitored by using XTT (Weislow et al., J. Natl. Cancer Inst., 81:577 (1989)) assays with MCF7 and ZR75-1 cell lines. MCF7 cells were grown in DMEM containing 10% fetal bovine serum, penicillin/streptomycin, supplemented with 10^−10 M insulin, 1 mM sodium pyruvate and glutamine. ZR75-1 cells were grown in RPMI containing 10% fetal bovine serum, penicillin/streptomycin, supplemented with HEPES buffer, 1 mM sodium pyruvate and glutamine. Cells were regularly tested for mycoplasma contamination. Cells were seeded triplicates at an initial cell density of 1,000 cells per well. Blank wells received no cells. […] Relative numbers of viable cells was determined by XTT assay. Briefly, in a 96-well plate, we added 50 μl of a mixture of 1 mg/ml of XTT (Weislow et al., J. Natl. Cancer Inst., 81:577 (1989)) (2,3-bis(2-methoxy-4-nitro-5-sulfophenyl)-5-[(phenylamino)carbonyl]-2H-tetrazolium hydroxide) (Polysciences, Washington, Pa.) containing 0.025 mM PMS (phenazine methosulfate) to each well. The 96-well plates were re-incubated for an additional 4 hours to allow for XTT formazan production. Then, the contents of each plate were mixed and optical densities were determined at a wavelength of 450 nm (OD450). Net OD450 was determined after subtracting OD450 of blank wells. Low-passage HeLa cells (between passage number 10 and 20) were transfected with pcDNA3-Bcl-xL or control pcDNA3 plasmids using Lipofectamine Plus reagent (Invitrogen) and selected in medium containing 800 μg/ml of G418. Immunoblot analysis of Bcl-xL was accomplished as described (Krajanski 1996-Cancer Res) HeLa-transfectants were treated with various doses of Gossypol, Purpurogallin, and its derivatives (0, 1, 3, 10 and 100 μM).
# [3] = biological target: T1, Bcl-xL (Homo sapiens, UniProt Q07817); assay: Fluorescence polarization-based competitive binding assay (FPA) with fluorescein-labeled Bad peptide
# T1 construct: made in house
# Protocol: FPA assays were conducted with a fluorescein-labeled Bad peptide ([sequence]-K(FITC)-FVD) (SEQ ID NO:1) (Synpep Corporation, Dublin, Calif.) using a LJL Analyst HT (Molecular Devices Co., Sunnyvale, Calif.). Dilution buffer for all stocks and samples was 50 mM Tris-Bis pH 7.4, 0.01% bovine gamma globulin. A series of two-fold dilutions of Gossypol were prepared, i.e., 100 μM, 50 μM, down to 0.1 μM in dilution buffer. To each tube was added a solution containing 30 nM of Bcl-xL and 4 nM fluoresceinated peptide. The tubes were incubated for 5 minutes at room temperature and 20 μl each of reaction mixture was transferred to 96-well black PS, HE Microplate (LJL Biosystems Co.). All assays were performed in quadruplicate, with blank wells receiving no Gossypol. Then, the plate was read for total intensity and polarization (in mP units) was measured. Controls included dose-responses measurements in absence of the proteins, to assess any interactions between the compounds and the FITC-BH3 peptide. Eventual effects were taken into account by subtraction.
# [4] = previous cell-based assays; cited from earlier work
# [5] = Combination of Apogossypol with fludarabine (FIG. 6, 7); format: cell-based
# [6] = tested on: HeLa cells; assay: HeLa cells viability assay; format: cell-based; settings: Homo sapiens, read-out: IC50 (μM) HeLa
# Protocol: as §1, §2
# [7] = Table 1, green tea extracts, target Bcl-xL inferred from text and figure legends, read-out: IC50
# [8] = Table 4, Purpurogallin derivatives, read-out: IC50 (μM) (Bcl-xL)
# [9] = Table 2, black tea extracts, target Bcl-xL inferred from text and figure legends, read-out: IC50
# T1 sequence (Q07817 whole entry): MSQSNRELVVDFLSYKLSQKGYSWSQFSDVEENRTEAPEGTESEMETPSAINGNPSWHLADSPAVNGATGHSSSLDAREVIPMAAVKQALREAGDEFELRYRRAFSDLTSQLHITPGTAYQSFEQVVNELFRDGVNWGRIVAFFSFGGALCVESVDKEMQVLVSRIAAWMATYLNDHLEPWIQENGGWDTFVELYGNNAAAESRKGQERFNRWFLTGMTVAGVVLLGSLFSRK
smiles,measurement,setting,value
Cc1cc2c(C(C)C)c(O)c(O)c(C=O)c2c(O)c1-c1c(C)cc2c(C(C)C)c(O)c(O)c(C=O)c2c1O (racemic) [Gossypol],IC50,"[1]; read-out: IC50, cell viability, three days",13.2 µM
same,IC50,[2],8.4 µM
"Oc1cc(O)c2c(c1)O[C@@H](c1ccc(O)c(O)c1)[C@@H](O)C2 [(+) Epicatechin (EC), (+) Epicatechin]",IC50,[3]; [7],> 100 µM
"Oc1cc(O)c2c(c1)O[C@@H](c1ccc(O)c(O)c1)[C@H](O)C2 [(−) Catechin (C), (−) Catechin]",IC50,[3]; [7],> 100 µM
"O=C(O[C@@H]1Cc2c(O)cc(O)cc2O[C@H]1c1ccc(O)c(O)c1)c1cc(O)c(O)c(O)c1 [(−) Catechin-3-gallate (CG), (−) Catechin-3-gallate]",IC50,[3]; [7],0.29 µM
"O=C(O[C@@H]1Cc2c(O)cc(O)cc2O[C@@H]1c1ccc(O)c(O)c1)c1cc(O)c(O)c(O)c1 [(−) Epicatechin-3-gallate (ECG), (−) Epicatechin-3-gallate]",IC50,[3]; [7],0.24 µM
"Oc1cc(O)c2c(c1)O[C@H](c1cc(O)c(O)c(O)c1)[C@H](O)C2 [(−) Epigallocatechin (EGC), (−) Epigallocatechin]",IC50,[3]; [7],> 100 µM
"O=C(O[C@@H]1Cc2c(O)cc(O)cc2O[C@@H]1c1cc(O)c(O)c(O)c1)c1cc(O)c(O)c(O)c1 [(−) Epigallocatechin-3-gallate (EGCG), (−) Epigallocatechin-3-gallate]",IC50,[3]; [7],0.98 µM
"Oc1cc(O)c2c(c1)O[C@@H](c1cc(O)c(O)c(O)c1)[C@H](O)C2 [(−) Gallocatechin (GC), (−) Gallocatechin]",IC50,[3]; [7],> 100 µM
"O=C(O[C@@H]1Cc2c(O)cc(O)cc2O[C@H]1c1cc(O)c(O)c(O)c1)c1cc(O)c(O)c(O)c1 [(−) Gallocatechin-3-gallate (GCG), (−) Gallocatechin-3-gallate]",IC50,[3]; [7],0.63 µM
Cc1cc2c(C(C)C)c(O)c(O)c(C=O)c2c(O)c1-c1c(C)cc2c(C(C)C)c(O)c(O)c(C=O)c2c1O [(−) Gossypol],effectiveness as a cytotoxic agent relative to (+) Gossypol,[4],ten times more effective than (+) Gossypol
"Cc1cc2c(C(C)C)c(O)c(O)cc2c(O)c1-c1c(C)cc2c(C(C)C)c(O)c(O)cc2c1O [Apogossypol (6C1), Apogossypol]",effect in combination with fludarabine (F-ara-A),[5]; FIG. 6,additive effect
same,effect in combination with F-ara-A,[5]; FIG. 7,synergistic Effect
CCOC(=O)c1cc(O)c(=O)c2cc(O)c(O)cc2c1 [Compound 5D1],IC50,"[6]; Table 4, HeLa cells viability",51.5 µM
same,IC50,[2],~50 µM
same,IC50,[3]; [8],73 µM
COc1cc2cccc(OC)c(=O)c2c(OC)c1OC [Compound 6A1],IC50,"[6]; Table 4, HeLa cells viability",> 100 µM
same,IC50,[3]; [8],> 100 µM
COc1c(O)cc2cccc(OC)c(=O)c2c1OC [Compound 6A7],IC50,[6]; HeLa,> 100 µM
same,IC50,[3],> 100 µM
O=C(O)c1cc(O)c(=O)c2cc(O)c(O)cc2c1 [Compound 1142],IC50,"[6]; Table 4, HeLa cells viability",22.9 µM
same,IC50,[3]; [8],7.4 µM
COC(=O)c1cc(O)c(=O)c2cc(O)c(O)cc2c1 [Compound 1163],IC50,[3]; [8],2.6 µM
O=c1c(O)cccc2cc(O)c(O)c(O)c12 [Purpurogallin],cytotoxic activity,[1],did not show appreciable activity
same,IC50,"[6]; Table 4, HeLa cells viability",6.5 µM
same,cytotoxic activity,[2],did not show appreciable activity
same,competition for the BH3-binding pocket,[3]; FIG. 1 legend,compete for the BH3-binding pocket of Bcl-xL
O=c1c(O)cccc2c([C@H]3Oc4cc(O)cc(O)c4C[C@H]3O)cc(O)c(O)c12 [Theaflavanin],IC50,[3]; [9],0.55 µM
O=C(O[C@H]1Cc2c(O)cc(O)cc2OC1c1cc(O)c(=O)c2c(O)c(O)cc([C@H]3Oc4cc(O)cc(O)c4C[C@H]3O)c2c1)c1cc(O)c(O)c(O)c1 (stereo partly drawn) [Theaflavin-3′-gallate],IC50,[3]; [9],0.6 µM
O=c1c(O)cc([C@H]2Oc3cc(O)cc(O)c3C[C@H]2O)cc2c([C@H]3Oc4cc(O)cc(O)c4C[C@H]3O)cc(O)c(O)c12 [Theaflavin],IC50,[3]; [9],1.05 µM
